Measurements from paper PMC11480511 (Scientific Reports, 2024).
In brackets after ≈: the same amount, converted by molar mass. Several values for one entry are separate records, joined by “and”; a condition that tells them apart may be missing. Identical values can stand only once. Like-named read-outs stand apart in the source and are kept apart here.

Columns and labels:
MOLT-4 = assay: NCI single-dose growth inhibition screen; type: cell-based; conditions: Homo sapiens; Leukemia MOLT-4; single dose 10^−5 M
[1] = tested on: A498 renal cancer cell line; assay: cells; conditions: Homo sapiens
T-47D = assay: NCI single-dose growth inhibition screen; type: cell-based; conditions: Homo sapiens, T47D; Breast Cancer T-47D; single dose 10^−5 M
HOP-62 = assay: NCI single-dose growth inhibition screen; type: cell-based; conditions: Homo sapiens; Non-Small Cell Lung Cancer HOP-62; single dose 10^−5 M
PC-3 = assay: NCI single-dose growth inhibition screen; type: cell-based; conditions: Homo sapiens; Prostate Cancer PC-3; single dose 10^−5 M
LOX IMVI = assay: NCI single-dose growth inhibition screen; type: cell-based, human; conditions: Melanoma LOX IMVI, single dose 10^−5 M; for inhibition at 10 µM: Homo sapiens, LOX IMVI
OVCAR-8 = assay: NCI single-dose growth inhibition screen; type: cell-based; conditions: Homo sapiens; Ovarian Cancer OVCAR-8; single dose 10^−5 M
HS 578T = assay: NCI single-dose growth inhibition screen; type: cell-based; conditions: Homo sapiens; Breast Cancer HS 578T; single dose 10^−5 M
IGROV1 = assay: NCI single-dose growth inhibition screen; type: cell-based; conditions: Homo sapiens, IGROV-1; Ovarian Cancer IGROV1; single dose 10^−5 M
HOP-92 = assay: NCI single-dose growth inhibition screen; type: cell-based; conditions: Homo sapiens; Non-Small Cell Lung Cancer HOP-92; single dose 10^−5 M
ACHN = assay: NCI single-dose growth inhibition screen; type: cell-based; conditions: Homo sapiens; Renal Cancer ACHN; single dose 10^−5 M
human melanoma LOX IMVI = assay: cells
SN12C = assay: NCI single-dose growth inhibition screen; type: cell-based; conditions: Homo sapiens; Renal Cancer SN12C; single dose 10^−5 M
NCI-H322M = assay: NCI single-dose growth inhibition screen; type: cell-based; conditions: Homo sapiens; Non-Small Cell Lung Cancer NCI-H322M; single dose 10^−5 M
MCF7 = assay: NCI single-dose growth inhibition screen; type: cell-based, human; conditions: single dose 10^−5 M; for inhibition at 10 µM: Homo sapiens, MCF7, Breast Cancer MCF7
HCT-116 = assay: NCI single-dose growth inhibition screen; type: cell-based; conditions: Homo sapiens; Colon Cancer HCT-116; single dose 10^−5 M
UACC-62 = assay: NCI single-dose growth inhibition screen; type: cell-based; conditions: Homo sapiens; Melanoma UACC-62; single dose 10^−5 M
NCI-H460 = assay: NCI single-dose growth inhibition screen; type: cell-based; conditions: Homo sapiens; Non-Small Cell Lung Cancer NCI-H460; single dose 10^−5 M
MDA-MB-468 = assay: NCI single-dose growth inhibition screen; type: cell-based; conditions: Homo sapiens; Breast Cancer MDA-MB-468; single dose 10^−5 M
RXF 393 = assay: NCI single-dose growth inhibition screen; type: cell-based; conditions: Homo sapiens; Renal Cancer RXF 393; single dose 10^−5 M
NCI-H522 = assay: NCI single-dose growth inhibition screen; type: cell-based; conditions: Homo sapiens; Non-Small Cell Lung Cancer NCI-H522; single dose 10^−5 M
RPMI-8226 = assay: NCI single-dose growth inhibition screen; type: cell-based; conditions: Homo sapiens; Leukemia RPMI-8226; single dose 10^−5 M
SNB-75 = assay: NCI single-dose growth inhibition screen; type: cell-based, human; conditions: Homo sapiens, SNB-75, CNS Cancer SNB-75; single dose 10^−5 M
HL-60(TB) = assay: NCI single-dose growth inhibition screen; type: cell-based; conditions: Homo sapiens; Leukemia HL-60(TB); single dose 10^−5 M
MALME-3 M = assay: NCI single-dose growth inhibition screen; type: cell-based; conditions: Homo sapiens; Melanoma MALME-3 M; single dose 10^−5 M
BT-549 = assay: NCI single-dose growth inhibition screen; type: cell-based; conditions: Homo sapiens; Breast Cancer BT-549; single dose 10^−5 M
UACC-257 = assay: NCI single-dose growth inhibition screen; type: cell-based; conditions: Homo sapiens; Melanoma UACC-257; single dose 10^−5 M
SK-MEL-2 = assay: NCI single-dose growth inhibition screen; type: cell-based; conditions: Homo sapiens; Melanoma SK-MEL-2; single dose 10^−5 M
NCI-H23 = assay: NCI single-dose growth inhibition screen; type: cell-based; conditions: Homo sapiens; Non-Small Cell Lung Cancer NCI-H23; single dose 10^−5 M
[2] = tested on: P. aeruginosa ATCC 27,853; assay: Antibacterial screening, agar cup diffusion method; type: cell-based; conditions: Pseudomonas aeruginosa, ATCC27; Gram –ve strain; read-out: Minimum inhibitory concentrations (MIC, µM) P. aeruginosa ATCC 27,853
E. coli ATCC 25,922 = assay: Antibacterial screening, agar cup diffusion method; type: cell-based; conditions: read-out: Minimum inhibitory concentrations (MIC, µM) E. coli ATCC 25,922
Experimental: Anti-bacterial activity of the recently synthesized compounds 3a-k was evaluated at AUMC (Assiut University Mycological Centre), Assiut, Egypt. Assays were done against Gram-negative strains of K. pneumoniae (ATCC 100310, E. coli (ATCC 25922), Pseudomonas aeruginosa (ATCC 27853) and the Gram-positive S. aureus (ATCC 6538) strain utilizing standard agar cup diffusion method. The isolates from the four bacterial species examined were kept in TSB (Trypticase Soya Broth, Becton and Dickinson) with 10% glycerol at -70 °C and then subcultured on TSA (Trypticase Soya Agar, Becton and Dickinson) and TSB for 24 h at 37 °C former to inoculation. Bacterial isolates were then plated on sterile petri plates with 1 × 10^8 CFU/mL (0.5 McFarland turbidity) and 20 mL of Mueller Hinton Agar media (Oxoid) was then loaded. To ensure that the microorganisms were evenly dispersed, the plates were gently rotated before being left to harden on a level surface. Four equally spaced spherical-shaped wells (10 mm diameter) were painstakingly drilled using a sterilized cork bore after media solidification. All tested compounds under test underwent two-fold serial dilutions in a sequential manner. Three replications of 100 µL of each concentration were added to a well using a micropipette. Plates were then incubated for 24-hour at 37 °C. The average of the inhibition zones was then calculated. To determine the MICs, the natural logarithm of each diluted test substance’s concentration was plotted against the average area of the related inhibition zone. Following that, a regression line was created and the intercept on the ‘ln concentration” axis was determined, and the antilogarithm was calculated to indicate the MIC value[34],[63].

SK-MEL-5 = assay: NCI single-dose growth inhibition screen; type: cell-based, human; conditions: Homo sapiens, SK-MEL-5, Melanoma SK-MEL-5; single dose 10^−5 M
TK-10 = assay: NCI single-dose growth inhibition screen; type: cell-based; conditions: Homo sapiens; Renal Cancer TK-10; single dose 10^−5 M
[3] = Escherichia coli, ATCC25, Gram –ve strain

## O=C(O)c1cn(C2CC2)c2cc(N3CCN(C(=O)CCCN4C(=O)SC(=Cc5ccccc5)C4=O)CC3)c(F)cc2c1=O [3a, 7-[4-[4-[5-benzylidene-2,4-dioxo-thiazolidin-3-yl]butanoyl]piperazin-1-yl]-1-cyclopropyl-6-fluoro-4-oxo-quinoline-3-carboxylic acid]
MOLT-4
  inhibition at 10 µM: 12.6%
[1]; A498
  viability at 0.4 µM: 103%
  viability at 1.6 µM: 92.7%
  viability at 25 µM: 69.3%
  viability at 100 µM: 56.1%
[1]; A498, read-out: In vitro cytotoxicity (IC50) A498 cell line (µM ± SEM)
  IC50: > 150 µM
T-47D
  inhibition at 10 µM: 8.1%
HOP-62
  inhibition at 10 µM: < 0%
PC-3
  inhibition at 10 µM: < 0%
LOX IMVI
  inhibition at 10 µM: 41.4%
  Growth Inhibition (%): 53.25% and 53.3%
OVCAR-8
  inhibition at 10 µM: 15.4%
HS 578T
  inhibition at 10 µM: 8.8%
IGROV1
  inhibition at 10 µM: 8.5%
HOP-92
  inhibition at 10 µM: < 0%
ACHN
  inhibition at 10 µM: 14.5%
Human melanoma LOX IMVI
  viability at 0.4 µM: 77.9%
  viability at 1.6 µM: 69.2%
  viability at 25 µM: 48.8%
  viability at 100 µM: 40.4%
Human melanoma LOX IMVI; read-out: In vitro cytotoxicity (IC50) LOX IMVI (µM ± SEM)
  IC50: 26.7 ± 1.5 µM
SN12C
  inhibition at 10 µM: 2.6%
NCI-H322M
  inhibition at 10 µM: 9.4%
MCF7; Breast Cancer MCF7
  Growth Inhibition (%): 55.9%
MCF7
  inhibition at 10 µM: 55.9%
HCT-116
  inhibition at 10 µM: 19.3%
UACC-62
  inhibition at 10 µM: 28.6%
NCI-H460
  inhibition at 10 µM: 3.7%
other
  melting point: 238 °C
MDA-MB-468
  inhibition at 10 µM: 12.9%
RXF 393
  inhibition at 10 µM: < 0%
NCI-H522
  inhibition at 10 µM: 27.4%
RPMI-8226
  inhibition at 10 µM: 11.4%
SNB-75
  inhibition at 10 µM: 29.1%
HL-60(TB)
  inhibition at 10 µM: < 0%
MALME-3 M
  inhibition at 10 µM: 30.4%
BT-549
  inhibition at 10 µM: 7.3%
UACC-257
  inhibition at 10 µM: 21.1%
SK-MEL-2
  inhibition at 10 µM: 10.1%
NCI-H23
  inhibition at 10 µM: 10.2%
[2]
  MIC: > 20 µM
E. coli ATCC 25,922; [3]
  MIC: 0.2 µM (≈ 0.121 µg/mL)
SK-MEL-5
  inhibition at 10 µM: 24.6%
TK-10
  inhibition at 10 µM: < 0%

## O=C(O)c1cn(C2CC2)c2cc(N3CCN(C(=O)CCCN4C(=O)SC(=Cc5cccc([N+](=O)[O-])c5)C4=O)CC3)c(F)cc2c1=O [3d, 1-cyclopropyl-6-fluoro-7-[4-[4-[5-[(3-nitrophenyl)methylene]-2,4-dioxo-thiazolidin-3-yl]butanoyl]piperazin-1-yl]-4-oxoquinoline-3-carboxylic acid]
MOLT-4
  inhibition at 10 µM: < 0%
T-47D
  inhibition at 10 µM: < 0%
HOP-62
  inhibition at 10 µM: 5.2%
PC-3
  inhibition at 10 µM: < 0%
LOX IMVI
  inhibition at 10 µM: 26.5%
OVCAR-8
  inhibition at 10 µM: 3.1%
HS 578T
  inhibition at 10 µM: 8.2%
IGROV1
  inhibition at 10 µM: 1.6%
HOP-92
  inhibition at 10 µM: < 0%
ACHN
  inhibition at 10 µM: 4.2%
SN12C
  inhibition at 10 µM: 3.7%
NCI-H322M
  inhibition at 10 µM: 6.8%
MCF7
  inhibition at 10 µM: 1.9%
HCT-116
  inhibition at 10 µM: < 0%
UACC-62
  inhibition at 10 µM: 10.3%
NCI-H460
  inhibition at 10 µM: < 0%
other
  melting point: 263 °C
MDA-MB-468
  inhibition at 10 µM: 0.5%
RXF 393
  inhibition at 10 µM: < 0%
NCI-H522
  inhibition at 10 µM: 20.7%
RPMI-8226
  inhibition at 10 µM: < 0%
SNB-75
  inhibition at 10 µM: 18.2%
HL-60(TB)
  inhibition at 10 µM: < 0%
MALME-3 M
  inhibition at 10 µM: 9.8%
BT-549
  inhibition at 10 µM: 3%
UACC-257
  inhibition at 10 µM: 8.1%
SK-MEL-2
  inhibition at 10 µM: 2.9%
NCI-H23
  inhibition at 10 µM: 7.9%
[2]
  MIC: 0.87 µM (≈ 0.565 µg/mL)
E. coli ATCC 25,922; [3]
  MIC: 0.2 µM (≈ 0.13 µg/mL)
SK-MEL-5
  inhibition at 10 µM: 2.3%
TK-10
  inhibition at 10 µM: < 0%

## COc1ccc(/C=C2\SC(=O)N(CCCC(=O)N3CCN(c4cc5c(cc4F)c(=O)c(C(=O)O)cn5C4CC4)CC3)C2=O)cc1OC [3f]
MOLT-4
  inhibition at 10 µM: 7.2%
T-47D
  inhibition at 10 µM: 0.9%
HOP-62
  inhibition at 10 µM: < 0%
PC-3
  inhibition at 10 µM: < 0%
LOX IMVI
  inhibition at 10 µM: 2.4%
OVCAR-8
  inhibition at 10 µM: 2.9%
HS 578T
  inhibition at 10 µM: 1.2%
IGROV1
  inhibition at 10 µM: < 0%
HOP-92
  inhibition at 10 µM: 0.8%
ACHN
  inhibition at 10 µM: < 0%
SN12C
  inhibition at 10 µM: 0.8%
NCI-H322M
  inhibition at 10 µM: 4.2%
MCF7
  inhibition at 10 µM: 3.9%
HCT-116
  inhibition at 10 µM: < 0%
UACC-62
  inhibition at 10 µM: 1.4%
NCI-H460
  inhibition at 10 µM: < 0%
other
  melting point: 241 °C
MDA-MB-468
  inhibition at 10 µM: < 0%
RXF 393
  inhibition at 10 µM: < 0%
NCI-H522
  inhibition at 10 µM: 7.8%
RPMI-8226
  inhibition at 10 µM: < 0%
SNB-75
  inhibition at 10 µM: 4.9%
HL-60(TB)
  inhibition at 10 µM: 1.9%
MALME-3 M
  inhibition at 10 µM: 5.9%
BT-549
  inhibition at 10 µM: 3.4%
UACC-257
  inhibition at 10 µM: 12.3%
SK-MEL-2
  inhibition at 10 µM: 2.8%
NCI-H23
  inhibition at 10 µM: < 0%
[2]
  MIC: > 20 µM
E. coli ATCC 25,922; [3]
  MIC: 1.94 to 2.6 µM (≈ 1.29 to 1.73 µg/mL)
E. coli ATCC 25,922; Gram –ve strain
  MIC: 2.23 µM (≈ 1.48 µg/mL)
SK-MEL-5
  inhibition at 10 µM: 1.9%
TK-10
  inhibition at 10 µM: 8.7%
